{"source": "patent US8927577B2", "about": "“Quinolinyl glucagon receptor modulators” (Pfizer Inc., priority 2011, dated 2015)", "key": {"human glucagon receptor [1]": {"biological_target": "T1, human glucagon receptor (Homo sapiens (Human), UniProt P47871)", "T1 sequence (P47871 26-477)": "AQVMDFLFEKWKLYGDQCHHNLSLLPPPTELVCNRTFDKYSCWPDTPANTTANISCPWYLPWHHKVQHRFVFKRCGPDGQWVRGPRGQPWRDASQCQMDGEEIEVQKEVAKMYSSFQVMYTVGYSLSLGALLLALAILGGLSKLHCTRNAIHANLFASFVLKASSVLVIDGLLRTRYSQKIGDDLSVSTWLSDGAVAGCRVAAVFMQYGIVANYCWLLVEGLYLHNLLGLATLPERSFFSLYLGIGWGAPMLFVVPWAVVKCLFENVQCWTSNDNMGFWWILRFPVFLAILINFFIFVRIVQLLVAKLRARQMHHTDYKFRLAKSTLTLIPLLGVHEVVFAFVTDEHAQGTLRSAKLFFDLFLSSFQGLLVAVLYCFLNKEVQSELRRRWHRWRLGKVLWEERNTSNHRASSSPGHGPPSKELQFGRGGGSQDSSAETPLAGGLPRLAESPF", "assay": "Human Glucagon SPA Assay", "conditions": "membrane from chem-1 cells stably transfected with the human glucagon receptor; 125 pM [125I]Glucagon-Cex; Ki by Cheng-Prusoff equation; read-out: Binding Ki", "description": "The Glucagon SPA assay is used to determine the ability of test compounds to block the binding of glucagon-cex to the glucagon receptor. Test compounds are re-suspended and serially diluted in 100% DMSO. 1 ul of test compound at the desired concentrations is spotted into the appropriate wells of 96 well low binding white clear bottom plate (Corning). 1 ul of DMSO is spotted into total binding wells. 1 ul of a known glucagon antagonist at a concentration of 20 uM is added to non specific binding wells. […] All assay ingredients with the exception of test compounds are re-suspended in the following buffer; 50 mM Hepes pH 7.4; 5 mM MgCl2; 1 mM CaCl; 5% glycerol and 0.2% BSA. Following a 6-10 hr incubation at room temperature the amount of hot ligand bound to the cell membranes is determined by reading the plates on a Wallac Trilux radioactive emission detector. Data is analyzed using Pfizer's Data analysis program. IC50 values are then determined from the generated sigmoidal dose response curves. Ki values are calculated using Cheng-Prusoff equation."}, "human glucagon receptor [2]": {"biological_target": "T1, human glucagon receptor", "assay": "Glucagon cAMP Assay", "assay_type": "cell-based", "conditions": "CHOK1 cells stably transfected with the human glucagon receptor; 100 pM glucagon challenge; Kb from IC50 by modified Cheng-Prusoff equation", "description": "The Cisbio cAMP detection assay is used to determine the ability of punitive glucagon antagonist to block glucagon induced cAMP production. Potential glucagon antagonists are re-suspended and diluted in 100% DMSO. Prior to use in the Glucagon cAMP assay 100×DMSO compound stocks are diluted 20× with DMEM-F12 media (Invitogen) containing either 0.1% or 4% BSA. 2 uls of 5× compound stocks are spotted into the appropriate wells of low binding white solid bottom 384 well plates (Corning). 2 uls of 5% DMSO or known glucagon antagonist are added to each plate to define the assay window. CHOK1 cells stably transfected with the human glucagon receptor are removed from culture flasks with cell dissociation buffer. Cell pellets are re-suspended, at a concentration of 8.3e^5 cells/ml in DMEM-F12 with or without 4% BSA and 200 uM IBMX. 6 uls of cell suspensions are added to the assay plates. Plates are incubated for 20 min at room temperature prior to the addition of a 100 pM challenge dose of glucagon. On a separate plate glucagon dose response curves are run to determine the EC50 of glucagon. After a 30 min room temperature incubation the reaction is terminated by the addition of lysis buffer containing the cAMP detection reagents. Plates are incubated for an additional 60 min at room temperature prior to being read on the Perkin Elmer fluorescent plate reader. Raw is converted to nM of cAMP produced based on a cAMP standard curve. Converted data is then analyzed using the Pfizer data analysis program. IC50 values are determined from the generated sigmoidal dose response curves. Kb values are the calculated using a modified Cheng-Prusoff equation."}}, "note": "pKi: −log10 of the molar value. Where a name gives a salt, the structure may show the parent alone."}
{"smiles": "CC1(C)CC(C(Nc2cnc3cc(F)ccc3c2)c2ccc(C(=O)NCCC(=O)O)cc2)C1", "note": "(racemic) [Example 22, (+/−)3-(4-((3,3-dimethylcyclobutyl)(7-fluoroquinolin-3-ylamino)methyl)benzamido)propanoic acid]", "values": [{"measurement": "pKi", "setting": "human glucagon receptor [1]", "value": 7.60}, {"measurement": "Kb", "setting": "human glucagon receptor [2]", "value": 47, "unit": "nM"}]}
{"smiles": "Cc1cc2cc(F)ccc2nc1NC(c1ccc(C(=O)NCCC(=O)O)cc1)C1CC(C)(C)C1", "note": "(racemic) [Example 20, (+/−)-3-{4-[(3,3-dimethyl-cyclobutyl)-(6-fluoro-3-methyl-quinolin-2-ylamino)-methyl]-benzoylamino}-propionic acid]", "values": [{"measurement": "pKi", "setting": "human glucagon receptor [1]", "value": 7.41}, {"measurement": "Kb", "setting": "human glucagon receptor [2]", "value": 64, "unit": "nM"}]}
{"smiles": "CC(C)CC(Nc1cnc2ccccc2c1)c1ccc(C(=O)NCCC(=O)O)cc1", "note": "(racemic) [Example 3, (+/−)3-{4-[3-methyl-1-(quinolin-3-ylamino)-butyl]-benzoylamino}-propionic acid]", "values": [{"measurement": "pKi", "setting": "human glucagon receptor [1]", "value": 6.62}, {"measurement": "Kb", "setting": "human glucagon receptor [2]", "value": 270, "unit": "nM"}]}
{"smiles": "Cc1cc2cc(F)ccc2nc1NC(c1ccc(C(=O)NCCC(=O)O)cc1)C1CC(C)(C)C1", "note": "(single isomer, unassigned; isomer 2) [Example 35, 3-{4-[(3,3-dimethyl-cyclobutyl)-(6-fluoro-3-methyl-quinolin-2-ylamino)-methyl]-benzoylamino}-propionic acid, isomer 2]", "values": [{"measurement": "pKi", "setting": "human glucagon receptor [1]", "value": 7.85}, {"measurement": "Kb", "setting": "human glucagon receptor [2]", "value": 33, "unit": "nM"}]}
{"smiles": "CC(C)CC(Nc1ccc2ccccc2n1)c1ccc(C(=O)NCCC(=O)O)cc1", "note": "(racemic) [Example 5, (+/−)-3-{4-[3-methyl-1-(quinolin-2-ylamino)-butyl]-benzoylamino}-propionic acid]", "values": [{"measurement": "pKi", "setting": "human glucagon receptor [1]", "value": 6.34}, {"measurement": "Kb", "setting": "human glucagon receptor [2]", "value": 380, "unit": "nM"}]}
{"smiles": "Cc1ccc2ncc(NC(CC(C)C)c3ccc(C(=O)NCCC(=O)O)cc3)cc2c1", "note": "(stereo not drawn) [Example 27, N-(4-{3-methyl-1-[(6-methylquinolin-3-yl)amino]butyl}benzoyl)-beta-alanine]", "values": [{"measurement": "pKi", "setting": "human glucagon receptor [1]", "value": 6.80}, {"measurement": "Kb", "setting": "human glucagon receptor [2]", "value": 250, "unit": "nM"}]}
{"smiles": "CC(C)CC(Nc1ncc2ccccc2n1)c1ccc(C(=O)NCCC(=O)O)cc1", "note": "(racemic) [Example 14, (+/−)-3-{4-[3-methyl-1-(quinazolin-2-ylamino)-butyl]-benzoylamino}-propionic acid]", "values": [{"measurement": "Kb", "setting": "human glucagon receptor [2]", "value": 3100, "unit": "nM"}]}
{"smiles": "CC(C)CC(Nc1cc2ccccc2cn1)c1ccc(C(=O)NCCC(=O)O)cc1", "note": "(racemic) [Example 9, (+/−)-3-{4-[1-(isoquinolin-3-ylamino)-3-methyl-butyl]-benzoylamino}-propionic acid trifluoroacetate]", "values": [{"measurement": "pKi", "setting": "human glucagon receptor [1]", "value": 6.27}, {"measurement": "Kb", "setting": "human glucagon receptor [2]", "value": 450, "unit": "nM"}]}
{"smiles": "Cc1c(NC(CC(C)C)c2ccc(C(=O)NCCC(=O)O)cc2)cnc2ccccc12", "note": "(stereo not shown) [Example 18, (+\\−)-3-(4-(3-methyl-1-(4-methylquinolin-3-ylamino)butyl)benzamido)propanoic acid]", "values": [{"measurement": "pKi", "setting": "human glucagon receptor [1]", "value": 6.96}, {"measurement": "Kb", "setting": "human glucagon receptor [2]", "value": 100, "unit": "nM"}]}
{"smiles": "Cc1cc(NC(CC(C)C)c2ccc(C(=O)NCCC(=O)O)cc2)nc2cc(F)ccc12", "note": "(racemic) [Example 12, (+/−)-3-{4-[1-(7-fluoro-4-methyl-quinolin-2-ylamino)-3-methyl-butyl]-benzoylamino}-propionic acid]", "values": [{"measurement": "pKi", "setting": "human glucagon receptor [1]", "value": 6.62}, {"measurement": "Kb", "setting": "human glucagon receptor [2]", "value": 310, "unit": "nM"}]}
{"smiles": "COc1cccc2ccc(NC(CC(C)C)c3ccc(C(=O)NCCC(=O)O)cc3)nc12", "note": "(racemic) [Example 6, (+/−)-3-{4-[1-(8-methoxy-quinolin-2-ylamino)-3-methyl-butyl]-benzoylamino}-propionic acid]", "values": [{"measurement": "pKi", "setting": "human glucagon receptor [1]", "value": 5.73}, {"measurement": "Kb", "setting": "human glucagon receptor [2]", "value": 620, "unit": "nM"}]}
{"smiles": "O=C(O)CCNC(=O)c1ccc(C(CCC(F)(F)F)Nc2cnc3ccccc3c2)cc1", "note": "(racemic) [Example 29, (+/−)-3-(4-(4,4,4-trifluoro-1-(quinolin-3-ylamino)butyl)benzamido)propanoic acid]", "values": [{"measurement": "pKi", "setting": "human glucagon receptor [1]", "value": 6.03}, {"measurement": "Kb", "setting": "human glucagon receptor [2]", "value": 930, "unit": "nM"}]}
{"smiles": "Cc1cc(NC(CC(C)C)c2ccc(C(=O)NCCC(=O)O)cc2)nc2ccccc12", "note": "(racemic) [Example 10, (+/−)-3-{4-[3-methyl-1-(4-methyl-quinolin-2-ylamino)-butyl]-benzoylamino}-propionic acid]", "values": [{"measurement": "pKi", "setting": "human glucagon receptor [1]", "value": 6.70}, {"measurement": "Kb", "setting": "human glucagon receptor [2]", "value": 220, "unit": "nM"}]}
{"smiles": "Cc1cc2cc(F)ccc2nc1NC(c1ccc(C(=O)NCCC(=O)O)cc1)C1CC(C)(C)C1", "note": "(single isomer, unassigned; isomer 1) [Example 34, 3-{4-[(3,3-dimethyl-cyclobutyl)-(6-fluoro-3-methyl-quinolin-2-ylamino)-methyl]-benzoylamino}-propionic acid, isomer 1]", "values": [{"measurement": "Kb", "setting": "human glucagon receptor [2]", "value": 1180, "unit": "nM"}]}
{"smiles": "Cc1cc2ccccc2nc1NC(c1ccc(C(=O)NCCC(=O)O)cc1)C1CC(C)(C)C1", "note": "(single isomer, unassigned; isomer 2) [Example 33, 3-{4-[(3,3-dimethyl-cyclobutyl)-(3-methyl-quinolin-2-ylamino)-methyl]-benzoylamino}-propionic acid, isomer 2]", "values": [{"measurement": "Kb", "setting": "human glucagon receptor [2]", "value": 1820, "unit": "nM"}]}
{"smiles": "CC(C)CC(Nc1ncc2ccc(F)cc2n1)c1ccc(C(=O)NCCC(=O)O)cc1", "note": "(racemic) [Example 4, (+/−)-3-{4-[1-(7-fluoro-quinazolin-2-ylamino)-3-methyl-butyl]-benzoylamino}-propionic acid]", "values": [{"measurement": "pKi", "setting": "human glucagon receptor [1]", "value": 5.13}, {"measurement": "Kb", "setting": "human glucagon receptor [2]", "value": 5100, "unit": "nM"}]}
{"smiles": "Cc1nc2ccccc2cc1NC(CC(C)C)c1ccc(C(=O)NCCC(=O)O)cc1", "note": "(stereo not shown) [Example 17, (+\\−)-3-(4-(3-methyl-1-(2-methylquinolin-3-ylamino)butyl)benzamido)propanoic acid]", "values": [{"measurement": "pKi", "setting": "human glucagon receptor [1]", "value": 6.44}, {"measurement": "Kb", "setting": "human glucagon receptor [2]", "value": 880, "unit": "nM"}]}
{"smiles": "CC1(C)CC(C(Nc2cnc3ccccc3c2)c2ccc(C(=O)NCCC(=O)O)cc2)C1", "note": "(stereo not shown) [Example 24, 3-(4-((3,3-dimethylcyclobutyl)(quinolin-3-ylamino)methyl)benzamido)propanoic acid]", "values": [{"measurement": "Kb", "setting": "human glucagon receptor [2]", "value": 140, "unit": "nM"}]}
{"smiles": "Cc1nc2ccccc2nc1NC(CC(C)C)c1ccc(C(=O)NCCC(=O)O)cc1", "note": "(racemic) [Example 8, (+/−)-3-{4-[3-methyl-1-(3-methyl-quinoxalin-2-ylamino)-butyl]-benzoylamino}-propionic acid]", "values": [{"measurement": "pKi", "setting": "human glucagon receptor [1]", "value": 6.01}, {"measurement": "Kb", "setting": "human glucagon receptor [2]", "value": 1000, "unit": "nM"}]}
{"smiles": "Cc1cc2ccccc2nc1NC(CC(C)C)c1ccc(C(=O)NCCC(=O)O)cc1", "note": "(racemic) [Example 11, (+/−)-3-{4-[3-methyl-1-(3-methyl-quinolin-2-ylamino)-butyl]-benzoylamino}-propionic acid]", "values": [{"measurement": "pKi", "setting": "human glucagon receptor [1]", "value": 7.00}, {"measurement": "Kb", "setting": "human glucagon receptor [2]", "value": 91, "unit": "nM"}]}
{"smiles": "CC(C)CC(Nc1cnc2ccccc2n1)c1ccc(C(=O)NCCC(=O)O)cc1", "note": "(racemic) [Example 7, (+/−)-3-{4-[3-methyl-1-(quinoxalin-2-ylamino)-butyl]-benzoylamino}-propionic acid]", "values": [{"measurement": "Kb", "setting": "human glucagon receptor [2]", "value": 1000, "unit": "nM"}]}
{"smiles": "CCC[C@@H](Nc1nc2ccccc2cc1C)c1ccc(C(=O)NCCC(=O)O)cc1", "note": "[Example 1, (+)-3-(4-(1-((3-Methylquinolin-2-yl)amino)butyl)benzamido)propanoic acid]", "values": [{"measurement": "pKi", "setting": "human glucagon receptor [1]", "value": 6.76}, {"measurement": "Kb", "setting": "human glucagon receptor [2]", "value": 110, "unit": "nM"}]}
{"smiles": "Cc1cc2ccccc2nc1NC(c1ccc(C(=O)NCCC(=O)O)cc1)C1CC(C)(C)C1", "note": "(racemic) [Example 19, (+/−)-3-{4-[(3,3-dimethyl-cyclobutyl)-(3-methyl-quinolin-2-ylamino)-methyl]-benzoylamino}-propionic acid]", "values": [{"measurement": "pKi", "setting": "human glucagon receptor [1]", "value": 7.13}, {"measurement": "Kb", "setting": "human glucagon receptor [2]", "value": 64, "unit": "nM"}]}
{"smiles": "CC(C)CC(Nc1ccc2ccc(C(F)(F)F)cc2n1)c1ccc(C(=O)NCCC(=O)O)cc1", "note": "(racemic) [Example 15, (+/−)3-(4-(3-methyl-1-(7-(trifluoromethyl)quinolin-2-ylamino)butyl)benzamido)propanoic acid]", "values": [{"measurement": "pKi", "setting": "human glucagon receptor [1]", "value": 6.32}, {"measurement": "Kb", "setting": "human glucagon receptor [2]", "value": 1100, "unit": "nM"}]}
